Results as given in ChEMBL document CHEMBL1151047, “NS 257 (1,2,3,6,7,8-hexahydro-3(hydroxyimino)-N,N,7-trimethyl-2-oxobenzo[2,1-b:3,4-c']dipyrrole-5-sulfonamide) is a potent, systemically active ampa receptor antagonist” (Bioorg Med Chem Lett, 1994).
pIC50: −log10 of the molar value.

What was measured:
Mus musculus = assay: Ability to block the AMPA-induced convulsant effects in mice upon intracerebroventricular injection; type: functional; conditions: central
[1] = target: Glutamate receptor ionotropic, NMDA 1 (Rattus norvegicus, UniProt P35439); assay: Binding affinity towards glycine binding site of NMDA receptor to rat cortical membrane using [3H]glycine as radioligand
[2] = target: Glutamate receptor ionotropic, AMPA (Rattus norvegicus, UniProt P19490+P19491+P19492+P19493); assay: Binding affinity towards AMPA receptor to rat cortical membrane using [3H]AMPA as radioligand
[3] = target: Glutamate receptor ionotropic, kainate; assay: Binding affinity towards kainate receptor to rat cortical membrane using [3H]kainate as radioligand
Glutamate NMDA receptor = assay: Binding affinity towards glutamate binding site of NMDA receptor to rat cortical membrane using NMDA sensitive [3H]-glutamate as radioligand
[4] = Compound was tested for neuronal damage produced by application of 500 uM kainate; type: functional
[5] = Inhibitory activity against lactate dehydrogenase release was determined; type: functional

| SMILES | ED50 (Mus musculus) [mg/kg] | pIC50 [1] | pIC50 [2] | pIC50 [3] | pIC50 (Glutamate NMDA receptor) | pIC50 [4] | pIC50 [5] |
| --- | --- | --- | --- | --- | --- | --- | --- |
| NS(=O)(=O)c1cccc2c1c([N+](=O)[O-])cc1nc(O)c(O)nc12 [NBQX] | 10 | – | – | – | – | – | – |
| CN1Cc2c(S(=O)(=O)N(C)C)cc3c(N=O)c(O)[nH]c3c2C1 | 10 | < 4.00 | 6.15 | 4.89 | 4.36 | 5.00 | 5.05 |
